Assays:
[1] = biological target: T1, EtROP2 (rhoptry kinase 2) (Eimeria tenella, UniProt U6KH66); test: ADP-Glo kinase assay with p120-TLTR peptide substrate, […] ATP; assay type: biochemical; design: gene ETH_00027700; EtROP2-GST, wild type, full-length, from Met1 to Glu671, produced in Sf9 cells
[2] = biological target: T1, EtROP2 (rhoptry kinase 2); design: gene ETH_00027700

T1 sequence (U6KH66 entry or part of it): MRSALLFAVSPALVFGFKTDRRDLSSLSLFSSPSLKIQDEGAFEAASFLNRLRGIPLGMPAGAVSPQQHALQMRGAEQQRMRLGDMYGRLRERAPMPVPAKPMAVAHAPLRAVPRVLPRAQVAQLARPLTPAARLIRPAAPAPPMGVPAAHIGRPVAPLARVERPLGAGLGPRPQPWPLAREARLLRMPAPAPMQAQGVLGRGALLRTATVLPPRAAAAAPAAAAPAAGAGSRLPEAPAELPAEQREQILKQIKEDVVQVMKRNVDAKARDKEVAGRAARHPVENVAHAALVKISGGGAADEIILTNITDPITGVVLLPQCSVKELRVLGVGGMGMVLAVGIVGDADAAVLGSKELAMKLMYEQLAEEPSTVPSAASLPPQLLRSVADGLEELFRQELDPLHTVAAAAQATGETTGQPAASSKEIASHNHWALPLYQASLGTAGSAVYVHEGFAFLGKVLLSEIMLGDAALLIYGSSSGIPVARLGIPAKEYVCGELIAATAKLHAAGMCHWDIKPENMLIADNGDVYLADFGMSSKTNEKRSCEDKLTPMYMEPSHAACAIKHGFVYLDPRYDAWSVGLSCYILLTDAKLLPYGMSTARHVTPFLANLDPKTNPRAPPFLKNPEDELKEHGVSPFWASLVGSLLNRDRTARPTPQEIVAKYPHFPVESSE

SMILES	IC50 [1] [nM]	Km [2] [µM]
CN[C@@H]1C[C@H]2O[C@@](C)([C@@H]1OC)n1c3ccccc3c3c4c(c5c6ccccc6n2c5c31)C(=O)NC4 [STS, staurosporine]	291	
Nc1ncnc2c1ncn2[C@@H]1O[C@H](COP(=O)(O)OP(=O)(O)OP(=O)(O)O)[C@@H](O)[C@H]1O [ATP]		~7.52

— paper PMC10434272, “Overexpression of Eimeria tenella Rhoptry Kinase 2 Induces Early Production of Schizonts” (Microbiology Spectrum, 2023)
